Results from PubChem BioAssay AID1963847 (Molecular Pharmacology Branch, DTP, NCI, 2024).

Tested on: 415267-285-R-J2-PDC complex spheroid viability
Assay: Anticancer human tumor 415267-285-R-J2-PDC patient-derived breast carcinoma cell line growth inhibition [POLQ]
Conditions: for IC50: curve of first compound; for viability, T/C: stronger effect = lower value
Experimental: Multicellular complex tumor spheroid response to Polymerase (POL) inhibitors (novobiocin, ART-558, RP6685) in combination with a variety of drugs and investigational agents in selected tumor cell lines
The POL inhibitors (novobiocin, ART-558, and RP6685) were evaluated both individually and in combination with standard of care and investigational anticancer small molecules within a complex spheroid model of solid tumors. . Complex spheroids include a stromal component modeled by human endothelial cells (HUVEC) and fibroblasts modeled by human mesenchymal stem cells (MSCs). The concentration ranges selected for each drug and investigational agent were based upon clinically achievable concentrations if the clinical Cmax of the agent was known.
Compounds. The drugs and investigational agents: novobiocin (NSC847541), ART-558 (NSC835418), RP-6685 (NSC848927), peposertib (NSC802822), ceralasertib (NSC780249), elimusertib (NSC800525), camonsertib (NSC841442), AZD-1390 (NSC803789), olaparib (NSC753686), talazoparib (NSC767125), rucaparib (NSC756644), sotorasib (NSC818433), MRTX-1133 (NSC836407), SN-38 (NSC673596), topotecan (NSC609699), epotoside (NSC141540), doxorubicin (NSC123127), gemcitabine (NSC613327), 5-fluorouracil (NSC19893), paclitaxel (NSC125973), vemurafenib (NSC761431), MSA-2 (NSC828583), SN-011 (NSC837082), adavosertib (NSC754352), prexasertib (NSC758257), carboplatin (NSC241240) and oxaliplatin (NSC266046), were obtained from the National Cancer Institute (NCI) Developmental Therapeutics Program Chemical Repository (21). The FDA-approved anticancer drug set is available from the Developmental Therapeutics Program at https://dtp.cancer.gov/organization/dscb/obtaining/. […] The stock solutions were prepared in dimethyl sulfoxide (DMSO, Sigma-Aldrich, St. Louis, MO, cat. D2650), except for the platinum compounds which were prepared in saline (Quality Biological, Gaithersburg, MD, cat. 114-055-101), at 800-fold the tested concentration and stored at -70 degrees C prior to their use. All drugs and investigational agents were tested over a range starting from a high concentration at or near the clinical Cmax and decreasing in half-log increments. If the clinical Cmax for an agent had not been determined, the highest concentration tested was 10 microM, except for SN-38, which was tested at a high concentration of 1 microM.
Cell Culture. All cells were maintained in an incubator at 37 degrees C and 5% CO2 with 95% humidity. The PDC lines were cultured according to standard operating procedures established by the NCI PDMR (https://pdmr.cancer.gov). Table 3 of the manuscript, lists the cell lines along with the number of the three cell types plated to form the mct-spheroids and media for tumor cell growth. After thawing, all PDC lines, except 997537-175-T-J1-PDC and 415267-285-R-J2-PDC, were cultured in Matrigel-coated flasks prepared with a working solution of 1X Ham's F-12 nutrient mix, without supplementation (Thermo Fisher Scientific, cat. 11765054), 100 U/mL penicillin-streptomycin (Thermo Fisher Scientific, cat. 15140122), and 2.5% Matrigel (Corning Inc., Corning, NY, cat. 354248) for the first three passages. The two PDC lines 997537-175-T-J1-PDC and 415267-285-R-J2-PDC were cultured on uncoated flasks. The 857933-349-R-J2-PDC line was cultured in 6C/Colon 1B media containing advanced DMEM/F-12 (Thermo Fisher Scientific, cat. 12634028), 10 mM HEPES (Thermo Fisher Scientific, cat. 15630080), 1X GlutaMAX supplement (Thermo Fisher Scientific, cat. 35050061), 0.1 mg/mL primocin (InvivoGen, San Diego, CA, cat. ant-pm-2), 10% defined fetal bovine serum, heat inactivated (HyClone Laboratories Inc., Logan, UT, cat. SH30070.03HI), 50% L-WRN conditioned media (ATCC, cat. CRL-3276), 1.25 mM N-Acetyl-L-cysteine (Sigma-Aldrich, cat. A9165), 10 mM nicotinamide (Sigma-Aldrich, cat. N0636), 1X B-27 supplement (Thermo Fisher Scientific, cat. 17504044), 1X N-2 supplement (Thermo Fisher Scientific, cat. […]

[1] = second compound 0.0316 µM, first compound 0.0316 µM
[2] = second compound 0.0316 µM, first compound 0.1 µM
[3] = second compound 0.0316 µM, first compound 0.316 µM
[4] = second compound 0.0316 µM, first compound 1 µM
[5] = second compound 0.0316 µM, first compound 3.16 µM
[6] = second compound 0.0316 µM, first compound 10 µM
[7] = second compound 0.1 µM, first compound 0.0316 µM
[8] = second compound 0.1 µM, first compound 0.1 µM
[9] = second compound 0.1 µM, first compound 0.316 µM
[10] = second compound 0.1 µM, first compound 1 µM
[11] = second compound 0.1 µM, first compound 3.16 µM
[12] = second compound 0.1 µM, first compound 10 µM
[13] = second compound 0.316 µM, first compound 0.0316 µM
[14] = second compound 0.316 µM, first compound 0.1 µM
[15] = second compound 0.316 µM, first compound 0.316 µM
[16] = second compound 0.316 µM, first compound 1 µM
[17] = second compound 0.316 µM, first compound 3.16 µM
[18] = second compound 0.316 µM, first compound 10 µM
[19] = second compound 1 µM, first compound 0.0316 µM
[20] = second compound 1 µM, first compound 0.1 µM
[21] = second compound 1 µM, first compound 0.316 µM
[22] = second compound 1 µM, first compound 1 µM
[23] = second compound 1 µM, first compound 3.16 µM
[24] = second compound 1 µM, first compound 10 µM
[25] = second compound 3.16 µM, first compound 0.0316 µM
[26] = second compound 3.16 µM, first compound 0.1 µM
[27] = second compound 3.16 µM, first compound 0.316 µM
[28] = second compound 3.16 µM, first compound 1 µM
[29] = second compound 3.16 µM, first compound 3.16 µM
[30] = second compound 3.16 µM, first compound 10 µM
[31] = second compound 10 µM, first compound 0.0316 µM
[32] = second compound 10 µM, first compound 0.1 µM
[33] = second compound 10 µM, first compound 0.316 µM
[34] = second compound 10 µM, first compound 1 µM
[35] = second compound 10 µM, first compound 3.16 µM
[36] = second compound 10 µM, first compound 10 µM
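Note: spheroids exposed to compounds for one week before readout.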
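Throughout, for viability, T/C: luminescence used as stand-in measure of viable cells; 100% = DMSO vehicle control viability.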

Nc1ccn(C2OC(CO)C(O)C2(F)F)c(=O)n1 (centres undefined) + Cc1cccc(N(C)C(=O)C2C(O)CCN2c2nc(C)cc(C(F)(F)F)c2C#N)c1
IC50 (second compound 0.0316 µM): < 0.0316 µM | IC50 (second compound 0.1 µM): < 0.0316 µM | IC50 (second compound 0.316 µM): < 0.0316 µM | IC50 (second compound 1 µM): < 0.0316 µM | IC50 (second compound 3.16 µM): < 0.0316 µM | IC50 (second compound 10 µM): < 0.0316 µM | viability, T/C [1]: 8.22% | viability, T/C [2]: 6.11% | viability, T/C [3]: 5.62% | viability, T/C [4]: 4.61% | viability, T/C [5]: 5.96% | viability, T/C [6]: 5.35% | viability, T/C [7]: 8.77% | viability, T/C [8]: 5.43% | viability, T/C [9]: 6.85% | viability, T/C [10]: 5.22% | viability, T/C [11]: 6.13% | viability, T/C [12]: 4.79% | viability, T/C [13]: 8.5% | viability, T/C [14]: 6.58% | viability, T/C [15]: 5.69% | viability, T/C [16]: 5.62% | viability, T/C [17]: 6.58% | viability, T/C [18]: 6.07% | viability, T/C [19]: 12.5% | viability, T/C [20]: 6.12% | viability, T/C [21]: 5.2% | viability, T/C [22]: 5.51% | viability, T/C [23]: 5.07% | viability, T/C [24]: 5.32% | viability, T/C [25]: 7.95% | viability, T/C [26]: 5.96% | viability, T/C [27]: 5.8% | viability, T/C [28]: 4.93% | viability, T/C [29]: 5.53% | viability, T/C [30]: 5.95% | viability, T/C [31]: 9.14% | viability, T/C [32]: 6.37% | viability, T/C [33]: 6.58% | viability, T/C [34]: 5.23% | viability, T/C [35]: 6.03% | viability, T/C [36]: 5.65%

O=C(c1cc(Cc2n[nH]c(=O)c3ccccc23)ccc1F)N1CCN(C(=O)C2CC2)CC1 + Cc1cccc(N(C)C(=O)C2C(O)CCN2c2nc(C)cc(C(F)(F)F)c2C#N)c1
IC50 (second compound 0.0316 µM): > 10 µM | IC50 (second compound 0.1 µM): > 10 µM | IC50 (second compound 0.316 µM): > 10 µM | IC50 (second compound 1 µM): > 10 µM | IC50 (second compound 3.16 µM): > 10 µM | IC50 (second compound 10 µM): > 10 µM | viability, T/C [1]: 87.6% | viability, T/C [2]: 101% | viability, T/C [3]: 102% | viability, T/C [4]: 99.7% | viability, T/C [5]: 103% | viability, T/C [6]: 82.9% | viability, T/C [7]: 94% | viability, T/C [8]: 96.2% | viability, T/C [9]: 96.5% | viability, T/C [10]: 106% | viability, T/C [11]: 91.2% | viability, T/C [12]: 78.3% | viability, T/C [13]: 95.3% | viability, T/C [14]: 98.3% | viability, T/C [15]: 99.4% | viability, T/C [16]: 111% | viability, T/C [17]: 95.8% | viability, T/C [18]: 86.6% | viability, T/C [19]: 104% | viability, T/C [20]: 95.1% | viability, T/C [21]: 95.8% | viability, T/C [22]: 98.2% | viability, T/C [23]: 92.9% | viability, T/C [24]: 76.8% | viability, T/C [25]: 99.3% | viability, T/C [26]: 98.6% | viability, T/C [27]: 88.5% | viability, T/C [28]: 95.9% | viability, T/C [29]: 87.7% | viability, T/C [30]: 72.9% | viability, T/C [31]: 100% | viability, T/C [32]: 85.1% | viability, T/C [33]: 87.7% | viability, T/C [34]: 98% | viability, T/C [35]: 90% | viability, T/C [36]: 68%
